From PubChem BioAssay AID1963975 (Molecular Pharmacology Branch, DTP, NCI, 2024)

Tested on: 624824-186-R-J2-PDC multicell spheroids, viability
Test: Anticancer human tumor 624824-186-R-J2-PDC patient-derived colon adenocarcinoma cell line growth inhibition [PI3K]
Settings: for IC50: curve of first compound; for viability, T/C: stronger effect = lower value
Procedure, shortened: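 Tumor cells grown as multi-cell spheroids with HUVEC endothelial cells and MSC fibroblast-like stroma were treated with targeted agents combined with inavolisib, alpelisib, duvelisib or copanlisib. Doses fell in half-log steps from near clinical Cmax, else from 10 microM. Viability was measured.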

[1] = second compound 0.0316 µM, first compound 0.0316 µM
[2] = second compound 0.0316 µM, first compound 0.1 µM
[3] = second compound 0.1 µM, first compound 0.0316 µM
[4] = second compound 0.1 µM, first compound 0.1 µM
[5] = second compound 0.316 µM, first compound 0.0316 µM
[6] = second compound 0.316 µM, first compound 0.1 µM
[7] = second compound 1 µM, first compound 0.0316 µM
[8] = second compound 1 µM, first compound 0.1 µM
[9] = second compound 3.16 µM, first compound 0.0316 µM
[10] = second compound 3.16 µM, first compound 0.1 µM
[11] = second compound 10 µM, first compound 0.0316 µM
[12] = second compound 10 µM, first compound 0.1 µM
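Further: spheroids exposed to agents for 7 days before viability read.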
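Wherever viability, T/C is given: 100% = DMSO vehicle treated spheroids.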

`CC(C)n1nc(-c2ccc3oc(N)nc3c2)c2c(N)ncnc21` + CC(Nc1ncnc2nc[nH]c12)c1cc2cccc(Cl)c2c(=O)n1-c1ccccc1 gave an IC50 (second compound 0.0316 µM) of over 0.1 µM, an IC50 (second compound 0.1 µM) of over 0.1 µM and an IC50 (second compound 0.316 µM) of over 0.1 µM. The IC50 (second compound 1 µM) was over 0.1 µM, the IC50 (second compound 3.16 µM) was over 0.1 µM and the IC50 (second compound 10 µM) was over 0.1 µM. For the same compound, the viability, T/C (second compound 0.0316 µM, first compound 0.000316 µM) was 108%, the viability, T/C (second compound 0.0316 µM, first compound 0.001 µM) was 113% and the viability, T/C (second compound 0.0316 µM, first compound 0.00316 µM) was 83%. The viability, T/C (second compound 0.0316 µM, first compound 0.01 µM) was 76.7%, the viability, T/C [1] was 75.7% and the viability, T/C [2] was 77.9%. It also gave a viability, T/C (second compound 0.1 µM, first compound 0.000316 µM) of 94.3%, a viability, T/C (second compound 0.1 µM, first compound 0.001 µM) of 81.9% and a viability, T/C (second compound 0.1 µM, first compound 0.00316 µM) of 105%. The viability, T/C (second compound 0.1 µM, first compound 0.01 µM) was 85.8%, the viability, T/C [3] was 81.5% and the viability, T/C [4] was 75.2%. For the same compound, the viability, T/C (second compound 0.316 µM, first compound 0.000316 µM) was 87.5%, the viability, T/C (second compound 0.316 µM, first compound 0.001 µM) was 77.3% and the viability, T/C (second compound 0.316 µM, first compound 0.00316 µM) was 73.6%. For the same compound, the viability, T/C (second compound 0.316 µM, first compound 0.01 µM) was 83.3%, the viability, T/C [5] was 86.8% and the viability, T/C [6] was 75.8%. The viability, T/C (second compound 1 µM, first compound 0.000316 µM) was 93.2%, the viability, T/C (second compound 1 µM, first compound 0.001 µM) was 99% and the viability, T/C (second compound 1 µM, first compound 0.00316 µM) was 91.6%. The viability, T/C (second compound 1 µM, first compound 0.01 µM) was 79.2%, the viability, T/C [7] was 84.8% and the viability, T/C [8] was 90.6%. For the same compound, the viability, T/C (second compound 3.16 µM, first compound 0.000316 µM) was 101%, the viability, T/C (second compound 3.16 µM, first compound 0.001 µM) was 90.5% and the viability, T/C (second compound 3.16 µM, first compound 0.00316 µM) was 82.3%. For the same compound, the viability, T/C (second compound 3.16 µM, first compound 0.01 µM) was 90.5%, the viability, T/C [9] was 87.7% and the viability, T/C [10] was 78.2%. It also gave a viability, T/C (second compound 10 µM, first compound 0.000316 µM) of 109%, a viability, T/C (second compound 10 µM, first compound 0.001 µM) of 96.7% and a viability, T/C (second compound 10 µM, first compound 0.00316 µM) of 82.7%. The viability, T/C (second compound 10 µM, first compound 0.01 µM) was 95.5%, the viability, T/C [11] was 81.2% and the viability, T/C [12] was 78.6%.

Work on `CC(Cn1ccc(-c2ccc(C#N)c(Cl)c2)n1)NC(=O)c1cc(C(C)O)[nH]n1` (centres undefined) + CC(Nc1ncnc2nc[nH]c12)c1cc2cccc(Cl)c2c(=O)n1-c1ccccc1 yielded an IC50 (second compound 0.0316 µM) of over 10 µM, an IC50 (second compound 0.1 µM) of over 10 µM and an IC50 (second compound 0.316 µM) of over 10 µM. For the same compound, the IC50 (second compound 1 µM) was over 10 µM, the IC50 (second compound 3.16 µM) was over 10 µM and the IC50 (second compound 10 µM) was over 10 µM. It also gave a viability, T/C [1] of 98.2%, a viability, T/C [2] of 90.6% and a viability, T/C (second compound 0.0316 µM, first compound 0.316 µM) of 96.1%. For the same compound, the viability, T/C (second compound 0.0316 µM, first compound 1 µM) was 106%, the viability, T/C (second compound 0.0316 µM, first compound 3.16 µM) was 99.2% and the viability, T/C (second compound 0.0316 µM, first compound 10 µM) was 113%. The viability, T/C [3] was 92.1%, the viability, T/C [4] was 93.6% and the viability, T/C (second compound 0.1 µM, first compound 0.316 µM) was 114%. It also gave a viability, T/C (second compound 0.1 µM, first compound 1 µM) of 108%, a viability, T/C (second compound 0.1 µM, first compound 3.16 µM) of 98.5% and a viability, T/C (second compound 0.1 µM, first compound 10 µM) of 115%. For the same compound, the viability, T/C [5] was 111%, the viability, T/C [6] was 102% and the viability, T/C (second compound 0.316 µM, first compound 0.316 µM) was 84.7%. The viability, T/C (second compound 0.316 µM, first compound 1 µM) was 97.5%, the viability, T/C (second compound 0.316 µM, first compound 3.16 µM) was 107% and the viability, T/C (second compound 0.316 µM, first compound 10 µM) was 100%. It also gave a viability, T/C [7] of 105%, a viability, T/C [8] of 106% and a viability, T/C (second compound 1 µM, first compound 0.316 µM) of 95.2%. The viability, T/C (second compound 1 µM, first compound 1 µM) was 94.5%, the viability, T/C (second compound 1 µM, first compound 3.16 µM) was 80.5% and the viability, T/C (second compound 1 µM, first compound 10 µM) was 92.4%. The viability, T/C [9] was 112%, the viability, T/C [10] was 102% and the viability, T/C (second compound 3.16 µM, first compound 0.316 µM) was 85.5%. It also gave a viability, T/C (second compound 3.16 µM, first compound 1 µM) of 102%, a viability, T/C (second compound 3.16 µM, first compound 3.16 µM) of 110% and a viability, T/C (second compound 3.16 µM, first compound 10 µM) of 115%. It also gave a viability, T/C [11] of 103%, a viability, T/C [12] of 106% and a viability, T/C (second compound 10 µM, first compound 0.316 µM) of 110%. It also gave a viability, T/C (second compound 10 µM, first compound 1 µM) of 115%, a viability, T/C (second compound 10 µM, first compound 3.16 µM) of 106% and a viability, T/C (second compound 10 µM, first compound 10 µM) of 107%.
